In patent US8178506B2, “Oligomeric compounds and compositions for use in modulation of small non-coding RNAs” (Regulus Therapeutics Inc., priority 2003, dated 2012):
In the oligonucleotide strings, read from the 5' end, every base follows the letter of its sugar. An asterisk marks phosphorothioate; unmarked linkages are phosphodiester. Other units and linkages are bracketed, terminal groups are in braces. A string of capitals states the bases alone. e = 2'-O-(2-methoxyethyl) (MOE); [5mC] = 5-methylcytosine

Columns and labels:
[1] = system: IL-12 mRNA; experiment: IL-12 mRNA in LPS-activated primary murine macrophages; assay type: cell-based, mouse; settings: for IL-12 mRNA expression, −IFN % UTC: 300 nM oligomeric compound and LPS, no IFN-gamma pretreatment, single experiment; for IL-12 mRNA expression, −IFN % UTC / IL-12 mRNA expression, +IFN % UTC: normalized to LPS-treated cells without oligomeric compound; for IL-12 mRNA expression, +IFN % UTC: 300 nM oligomeric compound, stimulation with IFN-gamma and LPS, average of 2 experiments; for IL-12 mRNA expression, % UTC: LPS, average of 3 treatments
[2] = system: PEPCK-c; experiment: PEPCK-c mRNA expression in HepG2 cells; assay type: cell-based, human; settings: for PEPCK-c (% UTC): HepG2, 100 nM oligomeric compound; for PEPCKc mRNA expression: Experiment 2, insulin treated: HepG2 cells transfected with oligomeric compound, 1 nM insulin for four hours, UTC + 1 nM insulin = 100; for PEPCKc mRNA: HepG2 cells, four hours, UTC = 100
[3] = system: follistatin; experiment: Follistatin mRNA expression in HepG2 cells; assay type: cell-based, human; settings: for Follistatin (% UTC): HepG2, 100 nM oligomeric compound; for Follistatin mRNA expression: Experiment 2, insulin treated: HepG2 cells transfected with oligomeric compound, 1 nM insulin for four hours, UTC + 1 nM insulin = 100; for Follistatin mRNA: HepG2 cells, four hours, UTC = 100
[4] = Experiment 1, basal (no insulin)
[5] = Experiment 2, 1 nM insulin treated

Substance | IL-12 mRNA expression, −IFN % UTC [1] | IL-12 mRNA expression, +IFN % UTC [1] | PEPCK-c (% UTC) [2, 4] | PEPCK-c (% UTC) [2, 5] | Follistatin (% UTC) [3, 4] | Follistatin (% UTC) [3, 5] | PEPCKc mRNA expression [2] | PEPCKc mRNA [2, 4] | Follistatin mRNA expression [3] | Follistatin mRNA [3, 4] | IL-12 mRNA expression, % UTC ([1]; 75 nM, +IFN) | IL-12 mRNA expression, % UTC ([1]; 75 nM, −IFN) | IL-12 mRNA expression, % UTC ([1]; 150 nM, +IFN) | IL-12 mRNA expression, % UTC ([1]; 150 nM, −IFN) | IL-12 mRNA expression, % UTC ([1]; 300 nM, +IFN) | IL-12 mRNA expression, % UTC ([1]; 300 nM, −IFN) | IL-12 mRNA expression, % UTC ([1]; 600 nM, +IFN) | IL-12 mRNA expression, % UTC ([1]; 600 nM, −IFN)
327903 (antisense eA*eA*e[5mC]*eT*eA*eT*eA*e[5mC]*eA*eA*e[5mC]*e[5mC]*eT*eA*e[5mC]*eT*eA*e[5mC]*e[5mC]*eT*e[5mC]*eA) [compound 327903] | 200 % UTC | 23 % UTC | 71 % UTC | 87 % UTC | 60 % UTC | 89 % UTC |  |  |  |  |  |  |  |  |  |  |  | 
327913 (antisense eA*eA*e[5mC]*e[5mC]*eG*eA*eT*eT*eT*e[5mC]*eA*eA*eA*eT*eG*eG*eT*eG*e[5mC]*eT*eA*eG) [compound 327913] | 276 % UTC | 73 % UTC | 229 % UTC | 268 % UTC | 115 % UTC | 123 % UTC |  |  |  |  |  |  |  |  |  |  |  | 
327919 (antisense eG*eA*eA*eA*e[5mC]*e[5mC]*e[5mC]*eA*eG*e[5mC]*eA*eG*eA*e[5mC]*eA*eA*eT*eG*eT*eA*eG*e[5mC]*eT) [compound 327919] | 179 % UTC | 37 % UTC | 71 % UTC | 105 % UTC | 74 % UTC | 178 % UTC |  |  |  |  |  |  |  |  |  |  |  | 
327920 (antisense eG*eA*eG*eA*e[5mC]*e[5mC]*e[5mC]*eA*eG*eT*eA*eG*e[5mC]*e[5mC]*eA*eG*eA*eT*eG*eT*eA*eG*e[5mC]*eT) [compound 327920] | 171 % UTC | 68 % UTC |  |  |  |  | 59 | 52 | 102 | 99 |  |  |  |  |  |  |  | 
327923 (antisense eG*eA*eA*eA*eG*eA*eG*eA*e[5mC]*e[5mC]*eG*eG*eT*eT*e[5mC]*eA*e[5mC]*eT*eG*eT*eG*eA) [compound 327923] | 269 % UTC | 134 % UTC |  |  |  |  | 125 | 83 | 106 | 86 |  |  |  |  |  |  |  | 
327925 (antisense eT*eA*eG*e[5mC]*eT*eG*eG*eT*eT*eG*eA*eA*eG*eG*eG*eG*eA*e[5mC]*e[5mC]*eA*eA) [compound 327925] | 302 % UTC | 60 % UTC | 145 % UTC | 182 % UTC | 110 % UTC | 148 % UTC |  |  |  |  |  |  |  |  |  |  |  | 
327941 (antisense eA*eA*e[5mC]*e[5mC]*e[5mC]*eA*e[5mC]*e[5mC]*eG*eA*e[5mC]*eA*eG*e[5mC]*eA*eA*eT*eG*eA*eA*eT*eG*eT*eT) [compound 327941] | 89 % UTC | 34 % UTC | 101 % UTC | 98 % UTC | 80 % UTC | 68 % UTC |  |  |  |  | 4 % UTC | 49 % UTC | 2 % UTC | 45 % UTC | 3 % UTC | 34 % UTC | 3 % UTC | 41 % UTC
341800 (antisense AAGCCCAAAAGGAGAAUUCUUUG; all 2'-MOE, all phosphorothioate, methylation of C and T or U not given here) [compound 341800] | 180 % UTC | 100 % UTC |  |  |  |  |  | 71 |  | 105 |  |  |  |  |  |  |  | 
